The results in this text go back to ChEMBL document CHEMBL1201862, “PubChem BioAssay data set” (2004).

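Where inhibition never reached the appropriate level, the endpoint shown equals the highest concentration tested. Otherwise, values were interpolated linearly from a five-concentration, 48-hour dose response in 96-well plates. GI50 marks 50% less growth.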 Calls of active or inactive are those of the source. No stated cut-off is given here; in the data, active = GI50 up to about 1.1 µM and inactive = higher.

Some test systems named below: 786-0; A549; BT-549; CAKI-1; CCRF-CEM; COLO 205; HCC 2998; HCT-116; HT-29; M14; MDA-MB-231; MOLT-4; Malme-3M; NCI-H226; OVCAR-3; PC-3; RPMI-8226; SF-295; SNB-19; SW-620.
Common to all, as to assay: NCI-60 cell line screen, 48 h

Turning to `CCN(CC)Cc1cc(Nc2c3ccccc3nc3c4ccccc4n(C)c23)cc(CN(CC)CC)c1O`, the GI50 with 786-0 is 3.48 µM (inactive); in the test with A549, 8.43 µM (inactive); in the test with BT-549 it was 2 µM (inactive); with CAKI-1, 13.5 µM (inactive); in the test with CCRF-CEM it was 2.4 µM (inactive); with COLO 205 it was 2.77 µM (inactive). In addition, the GI50 in the test with HCC 2998 was 5.11 µM (inactive); in the test on HCT-116, 2.89 µM (inactive); in the test on HT-29 it was 3.41 µM (inactive); with M14 it was 1.76 µM (inactive); in the test on MDA-MB-231, 3.03 µM (inactive); in the test on MOLT-4, 1.63 µM (inactive). Besides, the GI50 with Malme-3M was 2.74 µM (inactive); in the test with NCI-H226 it was 11.2 µM (inactive); in the test with OVCAR-3, 2.43 µM (inactive); in the test with PC-3, 2.42 µM (inactive); with RPMI-8226 it was 2.1 µM (inactive); with SF-295 it was 5.35 µM (inactive). Moreover, the figures for the GI50 in the test on SNB-19 and with SW-620 were 12.2 µM (inactive) and 3.12 µM (inactive), respectively.
In the case of `CC#CC#C/C=C1/O[C@]2(CCC(OC(C)=O)CO2)[C@@H]2O[C@H]12` (stereo not given in full), the GI50 in the test on 786-0 is 18.2 µM (inactive); with A549, 29.6 µM (inactive); with BT-549, 21.1 µM (inactive); with CAKI-1 it was 25.5 µM (inactive); in the test with CCRF-CEM it was 14.7 µM (inactive); in the test with COLO 205, 15.1 µM (inactive). Further, the GI50 was 18.5 µM (inactive) with HCC 2998; 17.8 µM (inactive) with HCT-116; 28.9 µM (inactive) in the test on HT-29; 18.4 µM (inactive) with M14; 23 µM (inactive) in the test with MDA-MB-231; 17 µM (inactive) with MOLT-4. Besides, the GI50 with Malme-3M was 14.7 µM (inactive); with NCI-H226 it was 20.4 µM (inactive); in the test on OVCAR-3 it was 29.4 µM (inactive); with PC-3, 22.1 µM (inactive); in the test on RPMI-8226 it was 27.2 µM (inactive); in the test on SF-295 it was 35.4 µM (inactive). For the same molecule, the GI50 is 27.7 µM (inactive) in the test with SNB-19 and 25.7 µM (inactive) in the test on SW-620.
As for `O=C(Nc1cccc2nsnc12)c1cc2c(cc1Cl)Sc1nccn1S2(=O)=O`, the GI50 in the test with 786-0 is 15.9 µM (inactive); in the test with A549, 17.3 µM (inactive); with BT-549 it was 15.1 µM (inactive); in the test on CAKI-1, 9.55 µM (inactive); in the test with CCRF-CEM, 3.28 µM (inactive); in the test on COLO 205 it was 18 µM (inactive). The GI50 is 3.38 µM (inactive) in the test with HCC 2998; 2.77 µM (inactive) in the test on HCT-116; 2.74 µM (inactive) in the test with HT-29; 18.9 µM (inactive) in the test on M14; 8.26 µM (inactive) with MDA-MB-231; 2.95 µM (inactive) in the test on MOLT-4. Besides, the GI50 was 74.5 µM (inactive) in the test on Malme-3M; 25.9 µM (inactive) with NCI-H226; 1.68 µM (inactive) with OVCAR-3; 1.9 µM (inactive) with PC-3; 2.26 µM (inactive) in the test on RPMI-8226; 14.1 µM (inactive) in the test on SF-295. Also, the GI50 with SNB-19 was 12.1 µM (inactive); in the test on SW-620, 10.5 µM (inactive).
On to `c1ccc(/C(=N\Nc2nc3ccccc3s2)c2ccccn2)cc1`, for which the GI50 in the test on 786-0 is 2.36 µM (inactive); with A549, 3.09 µM (inactive); in the test on BT-549 it was 18.8 µM (inactive); with CAKI-1, 2.72 µM (inactive); with CCRF-CEM, 0.0603 µM (active); in the test on COLO 205, 1.37 µM (inactive). Further, the GI50 is 14.4 µM (inactive) in the test with HCC 2998; 1.88 µM (inactive) in the test with HCT-116; 1.87 µM (inactive) in the test on HT-29; 3.14 µM (inactive) in the test with M14; 4.74 µM (inactive) in the test with MDA-MB-231; 0.346 µM (active) in the test on MOLT-4. In addition, the GI50 with Malme-3M was 0.649 µM (active); in the test with NCI-H226 it was 3.87 µM (inactive); with OVCAR-3, 0.0948 µM (active); in the test with PC-3 it was 5.7 µM (inactive); in the test with RPMI-8226, 1.77 µM (inactive); in the test with SF-295, 5.19 µM (inactive). The results for the GI50 in the test with SNB-19 and in the test with SW-620 were 5.77 µM (inactive) and 3.18 µM (inactive), respectively.
On to `C/C(=N\Nc1nc2ccccc2o1)c1cc(C)ncn1`, for which the GI50 with 786-0 was < 0.0275 µM (active); in the test on A549, 0.0957 µM (active); with BT-549, 0.305 µM (active); in the test with CAKI-1, 0.0129 µM (active); in the test with CCRF-CEM, < 0.01 µM (active); with COLO 205 it was < 0.01 µM (active). The GI50 with HCC 2998 was 11 µM (inactive); in the test with HCT-116, < 0.0191 µM (active); with HT-29 it was < 0.01 µM (active); with M14 it was < 0.0206 µM (active); with MDA-MB-231, < 0.0203 µM (active); with MOLT-4, < 0.01 µM (active). For the same molecule, the GI50 is 0.0327 µM (active) with Malme-3M; < 0.0142 µM (active) with NCI-H226; < 0.0223 µM (active) with OVCAR-3; 0.0383 µM (active) with PC-3; 0.0306 µM (active) with RPMI-8226; 0.0745 µM (active) in the test on SF-295. Besides, the values for the GI50 in the test with SNB-19 and with SW-620 were 0.405 µM (active) and < 0.0201 µM (active), respectively.
As for `N/N=C1\C(OC(=O)Nc2cccc(Cl)c2)=Nc2ccccc21`, the GI50 in the test on 786-0 is 6.64 µM (inactive); with A549 it was 5.92 µM (inactive); in the test with BT-549 it was 7.96 µM (inactive); in the test with CAKI-1, 4.47 µM (inactive); in the test on CCRF-CEM, 5.93 µM (inactive); in the test with COLO 205 it was 6.95 µM (inactive). Also, the GI50 in the test with HCC 2998 is 5.71 µM (inactive); in the test on HCT-116 it was 4.67 µM (inactive); in the test with HT-29 it was 6.59 µM (inactive); in the test with M14, 7.01 µM (inactive); with MDA-MB-231, 12.1 µM (inactive); in the test on MOLT-4 it was 6.49 µM (inactive). Also, the GI50 in the test on Malme-3M was 12.1 µM (inactive); in the test on NCI-H226, 15.3 µM (inactive); with OVCAR-3, 2.6 µM (inactive); in the test on PC-3, 4.98 µM (inactive); with RPMI-8226, 2.9 µM (inactive); in the test with SF-295, 2.35 µM (inactive). Besides, the GI50 with SNB-19 was 7.13 µM (inactive); with SW-620, 9.12 µM (inactive).
Turning to `CC(C)(C)N1Cc2ccccc2/C(=C/Sc2ccccc2)C1=O`, the GI50 is 10.7 µM (inactive) with 786-0; 16.2 µM (inactive) in the test on A549; 6.53 µM (inactive) in the test on BT-549; 16.6 µM (inactive) in the test with CAKI-1; 5.25 µM (inactive) with CCRF-CEM; 18.1 µM (inactive) in the test with COLO 205. Moreover, the GI50 in the test on HCC 2998 was 18.2 µM (inactive); in the test on HCT-116, 7.03 µM (inactive); in the test on HT-29, 17 µM (inactive); in the test on M14, 8.15 µM (inactive); in the test on MDA-MB-231, 16.5 µM (inactive); with MOLT-4 it was 3.21 µM (inactive). Moreover, the GI50 is 13.3 µM (inactive) with Malme-3M; 8.83 µM (inactive) in the test with NCI-H226; 12 µM (inactive) in the test on OVCAR-3; 12.6 µM (inactive) with PC-3; 5.82 µM (inactive) with RPMI-8226; 17.4 µM (inactive) in the test on SF-295. In addition, the GI50 in the test on SNB-19 was 16 µM (inactive); with SW-620, 7.21 µM (inactive).
With `O=C(CC(=O)N(C(=O)/C=C\c1ccccc1)c1ccc(Cl)cc1)N1N=C(c2ccccc2)C(/N=N/c2cccc([N+](=O)[O-])c2)C1=O` (stereo not given), the GI50 with 786-0 is 3.35 µM (inactive); with A549, 5.05 µM (inactive); in the test with BT-549 it was 12.3 µM (inactive); with CAKI-1, 10.7 µM (inactive); in the test with CCRF-CEM it was 1.36 µM (inactive); in the test with COLO 205, 3.45 µM (inactive). Further, the GI50 with HCC 2998 is 3.87 µM (inactive); in the test with HCT-116 it was 3.37 µM (inactive); in the test on HT-29 it was 2.42 µM (inactive); in the test with M14, 7.08 µM (inactive); in the test with MDA-MB-231 it was 0.971 µM (active); with MOLT-4 it was 2.56 µM (inactive). Moreover, the GI50 in the test on Malme-3M is 11.3 µM (inactive); in the test on NCI-H226, 13.2 µM (inactive); in the test on OVCAR-3, 2.36 µM (inactive); in the test with PC-3, 3.23 µM (inactive); in the test with RPMI-8226, 3.35 µM (inactive); with SF-295 it was 5.25 µM (inactive). Further, the figures for the GI50 with SNB-19 and in the test on SW-620 were 13.9 µM (inactive) and 2.32 µM (inactive), respectively.
For the molecule `CC1=Nc2ccccc2OC(C)=C1/N=N/c1ccc2[nH]c(C)nc2c1`, the GI50 in the test with 786-0 is > 100 µM (inactive); in the test with A549 it was > 100 µM (inactive); with BT-549 it was > 100 µM (inactive); with CAKI-1, 47.1 µM (inactive); in the test with CCRF-CEM, > 100 µM (inactive); in the test with COLO 205 it was > 100 µM (inactive). For the same molecule, the GI50 with HCC 2998, in the test on HCT-116, with HT-29, in the test with M14, in the test with MDA-MB-231 and in the test on MOLT-4 was > 100 µM (inactive) in each case. The GI50 in the test with Malme-3M, in the test with NCI-H226, in the test on OVCAR-3, with PC-3, in the test on RPMI-8226 and in the test with SF-295 was > 100 µM (inactive) throughout. The GI50 in the test on SNB-19 and in the test with SW-620 was > 100 µM (inactive) in each case.
Regarding `O=C1NC(=O)C(F)(n2cc(F)c(=O)[nH]c2=O)C(O)N1` (stereo not given), the GI50 in the test on 786-0, in the test with A549, in the test on BT-549, in the test on CAKI-1, in the test with CCRF-CEM and with COLO 205 was > 10 µM (inactive) each time. Further, the GI50 with HCC 2998, in the test with HCT-116, in the test on HT-29, with M14, in the test with MDA-MB-231 and with MOLT-4 was > 10 µM (inactive) in each case. Further, the GI50 in the test on Malme-3M, with NCI-H226, in the test on OVCAR-3, with PC-3, in the test with RPMI-8226 and with SF-295 was > 10 µM (inactive) each time. For the same molecule, the GI50 in the test on SNB-19 and in the test on SW-620 was > 10 µM (inactive) each time.
